According to ChEMBL document CHEMBL5385961, “In vitro and in vivo evaluation of novel chromeno[2,3-d]pyrimidinones as therapeutic agents for triple negative breast cancer” (RSC Med Chem, 2024):
Activity calls are given as the source filed them. No cut-off for these calls is given here.

What was measured:
[1] = Toxicity in wild type C57BL/6J mouse assessed as effect on body curvature at 10 to 50 mg/kg, ip administered daily for 7 days and measured daily; type: organism-based; details: in vivo, 168 h, dose 10-50 mg/kg, time 7 day
[2] = Toxicity in wild type C57BL/6J mouse assessed as effect on horizontal activity at 10 to 50 mg/kg, ip administered daily for 7 days and measured daily; type: organism-based; details: in vivo, 168 h, dose 10-50 mg/kg, time 7 day
[3] = Toxicity in wild type C57BL/6J mouse assessed as effect on hydration at 10 to 50 mg/kg, ip administered daily for 7 days and measured daily; type: organism-based; details: in vivo, 168 h, dose 10-50 mg/kg, time 7 day
[4] = system: Hs-578T; assay: Cytotoxicity against human Hs-578T cells assessed as reduction in cell proliferation at 0.5 times IC50 measured after 48 hrs by BrdU incorporation assay relative to control; type: functional; design: scale not given: the % may be the effect or the level left
[5] = system: Hs-578T; assay: Cytotoxicity against human Hs-578T cells assessed as inhibition of cell growth incubated for 72 hrs by SRB assay; type: functional, cell-based
[6] = system: Hs-578T; assay: Induction of apoptosis in human Hs-578T cells assessed as reduction in viable cells at IC50 measured after 24 to 48 hrs by Annexin V-FITC/PI staining based flow cytometry analysis; type: functional, cell-based; details: time 24-48 hrs
[7] = system: MDA-MB-231; assay: Cytotoxicity against human MDA-MB-231 cells assessed as cell viability at 10 uM incubated for 72 hrs by SRB assay relative to control; type: functional; details: read-out: Activity
[8] = system: Hs-578T; assay: Cytotoxicity against human Hs-578T cells assessed as reduction in cell proliferation at IC50 measured after 48 hrs by BrdU incorporation assay relative to control; type: functional; design: scale not given: the % may be the effect or the level left
[9] = Toxicity in wild type C57BL/6J mouse assessed as effect on eyelid opening at 10 to 50 mg/kg, ip administered daily for 7 days and measured daily; type: organism-based; details: in vivo, 168 h, dose 10-50 mg/kg, time 7 day
[10] = Toxicity in wild type C57BL/6J mouse assessed as reduction in body weight at 10 to 50 mg/kg, ip administered daily for 7 days; type: organism-based; details: in vivo, 168 h, dose 10-50 mg/kg, time 7 day
[11] = system: Hs-578T; assay: Antitumor activity against human Hs-578T cells implanted in chick eggs assessed as regression in tumors' perimeter at 2 times IC50 administered starting from day 13 and measured 17 days post embryo development by stereomicroscopic analysis relative to control; type: functional; details: time 5 day
[12] = system: Hs-578T; assay: Induction of apoptosis in human Hs-578T cells assessed as increase in cleaved PARP level at IC50 measured after 48 hrs by Western blot analysis; type: functional, cell-based
[13] = Toxicity in wild type C57BL/6J mouse assessed as mean water intake per day at 10 to 50 mg/kg, ip administered daily for 7 days; type: organism-based; details: in vivo, 168 h, dose 10-50 mg/kg, time 7 day
[14] = Toxicity in wild type C57BL/6J mouse assessed as clasping at 10 to 50 mg/kg, ip administered daily for 7 days and measured daily; type: organism-based; details: in vivo, 168 h, dose 10-50 mg/kg, time 7 day

Compound: Brc1ccc2c(c1)-c1cc(-c3ccccc3)nc3c1C(N=CN3c1ccccc1)O2 (centres undefined)
- Activity [1]: Non-Toxic
- Activity [2]: Non-Toxic
- Activity [3]: Non-Toxic
- Activity [4]: 10%
- IC50 [5]: 8.63 µM
- Activity [6]: Active
- viability at 10 µM [7]: 49.9%
- Activity [8]: 35%
- Activity [9]: Non-Toxic
- Activity [10]: Non-Toxic
- Activity [11]: 12.4%
- Activity [12]: Active
- Activity [13]: ~ 4 ml
- Activity [14]: Non-Toxic
